Measured values reported in US20260217711A1, “TRIAZOLOPYRIDINYL ETHER LINKED COMPOUNDS AS KINASE INHIBITORS” (Bristol-Myers Squibb Company, priority 2023, published 2026).
pIC50: −log10 of the molar value. Read-outs that look alike come from different tables or passages of the source.

System: MLKL phosphorylation (pMLKL) in HT29-L23 cells
Assay: MLKL Phosphorylation High-Content Assay
Assay type: cell-based
Details: necroptosis induced with human TNFα, SMAC mimetic and Z-VAD, 6 h, read-out: LE pMLKL HC IC50
Procedure: Following 6 h incubation at 37° C. […] MLKL phosphorylation was detected using anti-MLKL (phospho […]) antibody (Abcam #ab187091) (1:1000 dilution in Blocking Buffer [PBS supplemented with 0.1% BSA]) with ON incubation at 4° C. […] Following another three cycles of washes in PBS, the microplates were sealed, and cellular images were acquired in the Cellomics ArrayScan VTI high-content imager equipped with an X1 camera. […] The image sets were analyzed using the Compartmental Analysis Bioapplication software (Cellomics). The level of MLKL phosphorylation was quantified as […].

SMILES | pIC50 | pIC50 (Homo sapiens)
Nc1nc2cc(-c3ccc(F)c(OCCC(F)C(O)c4ccc(F)cc4)c3F)ccn2n1 (single isomer, unassigned) [Example 104, 4-(3-(2-amino-[1,2,4]triazolo-[1,5-a]pyridin-7-yl)-2,6-difluorophenoxy)-2-fluoro-1-(4-fluorophenyl)butan-1-ol] | 8.55 | 
COc1cc(F)c(OCCC(F)(F)C(C)(O)c2ccc(F)cc2)c(F)c1-c1ccn2nc(N)nc2c1 (single isomer, unassigned) [Example 20, 5-(3-(2-amino-[1,2,4]triazolo[1,5-a]pyridin-7-yl)-2,6-difluoro-4-methoxyphenoxy)-3,3-difluoro-2-(4-fluorophenyl)pentan-2-ol] | 6.96 | 
COc1ccc(-c2ccn3nc(N)nc3c2)c(F)c1OCCC(F)(F)C(C)(O)c1ccc(F)cc1 (single isomer, unassigned) [Example 18, 5-(3-(2-amino-[1,2,4]triazolo[1,5-a]pyridin-7-yl)-2-fluoro-6-methoxyphenoxy)-3,3-difluoro-2-(4-fluorophenyl)pentan-2-ol] | 7.10 | 
Nc1nc2cc(-c3ccc(Cl)c(OCCC(F)(F)C(O)c4ccc(F)cc4)c3F)ccn2n1 (single isomer, unassigned) [Example 59, 4-(3-(2-amino-[1,2,4]triazolo[1,5-a]pyridin-7-yl)-6-chloro-2-fluorophenoxy)-2,2-difluoro-1-(4-fluorophenyl)butan-1-ol] | 8.70 | 
CC(CC(F)(F)C(C)(O)c1ccc(F)cc1)Oc1c(F)ccc(-c2ccn3nc(N)nc3c2)c1F (single isomer, unassigned) [Example 126, 5-(3-(2-amino-[1,2,4]triazolo[1,5-a]pyridin-7-yl)-2,6-difluorophenoxy)-3,3-difluoro-2-(4-fluorophenyl)hexan-2-ol] | 6.43 | 
CC(CC(F)(F)C(C)(O)c1ccc(F)cc1)Oc1c(F)ccc(-c2ccn3nc(N)nc3c2)c1F (single isomer, unassigned) [Example 128, 5-(3-(2-amino-[1,2,4]triazolo[1,5-a]pyridin-7-yl)-2,6-difluorophenoxy)-3,3-difluoro-2-(4-fluorophenyl)hexan-2-ol] | 6.77 | 
Nc1nc2cc(-c3cc(F)c(F)c(OCCC(F)C(O)c4ccc(F)cc4)c3)ccn2n1 (single isomer, unassigned) [Example 117, 4-(5-(2-amino-[1,2,4]triazolo[1,5-a]pyridin-7-yl)-2,3-difluorophenoxy)-2-fluoro-1-(4-fluorophenyl)butan-1-ol] | 6.24 | 
CC(CC(F)(F)C(C)(O)c1ccc(F)cc1)Oc1c(F)ccc(-c2ccn3nc(N)nc3c2)c1F (single isomer, unassigned) [Example 129, 5-(3-(2-amino-[1,2,4]triazolo[1,5-a]pyridin-7-yl)-2,6-difluorophenoxy)-3,3-difluoro-2-(4-fluorophenyl)hexan-2-ol] | 7.15 | 
CC(O)(c1ccc(F)cc1)C(F)(F)CCOc1c(Cl)ccc(-c2ccn3nc(N)nc3c2)c1F (single isomer, unassigned) [Example 5, 5-(3-(2-amino-[1,2,4]triazolo[1,5-a]pyridin-7-yl)-6-chloro-2-fluorophenoxy)-3,3-difluoro-2-(4-fluorophenyl)pentan-2-ol] | 6.82 | 
CC(O)(c1ccc(F)cc1)C(F)(F)CCOc1cccc(-c2ccn3nc(N)nc3c2)c1F (racemic) [Example 73, 5-(3-(2-amino-[1,2,4]triazolo[1,5-a]pyridin-7-yl)-2-fluorophenoxy)-3,3-difluoro-2-(4-fluorophenyl)pentan-2-ol] |  | 9.30
[2H]C([2H])(CC(F)(F)C(C)(O)c1ccc(F)cc1)Oc1c(F)ccc(-c2ccn3nc(N)nc3c2)c1F (single isomer, unassigned) [Example 14, 5-(3-(2-amino-[1,2,4]triazolo[1,5-a]pyridin-7-yl)-2,6-difluorophenoxy)-3,3-difluoro-2-(4-fluorophenyl)pentan-5,5-d2-2-ol] | 7.52 | 
CC(N)(c1ccc(F)cc1)C(F)(F)CCOc1c(F)ccc(-c2ccn3nc(N)nc3c2)c1F (single isomer, unassigned) [Example 17, 7-(3-((4-amino-3,3-difluoro-4-(4-fluorophenyl)pentyl)oxy)-2,4-difluorophenyl)-[1,2,4]triazolo[1,5-a]pyridin-2-amine] | 7.22 | 
CC(O)(c1ccc(F)cc1)C(F)(F)CCOc1c(F)ccc(-c2ccc3nc(N)nn3c2)c1F (single isomer, unassigned) [Example 75, 5-(3-(2-amino-[1,2,4]triazolo[1,5-a]pyridin-6-yl)-2,6-difluorophenoxy)-3,3-difluoro-2-(4-fluorophenyl)pentan-2-ol] | 6.70 | 
CC(O)(c1ccc(F)cc1)C(F)CCOc1cccc(-c2ccn3nc(N)nc3c2)c1F (single isomer, unassigned) [Example 90, 5-(3-(2-amino-[1,2,4]triazolo[1,5-a]pyridin-7-yl)-2-fluorophenoxy)-3-fluoro-2-(4-fluorophenyl)pentan-2-ol] | 8.52 | 
Nc1nc2cc(-c3ccc(C(F)(F)F)c(OCCC(F)C(O)c4ccc(F)cc4)c3F)ccn2n1 (single isomer, unassigned) [Example 112, 4-(3-(2-amino-[1,2,4]triazolo[1,5-a]pyridin-7-yl)-2-fluoro-6-(trifluoromethyl)phenoxy)-2-fluoro-1-(4-fluorophenyl)butan-1-ol] | 6.14 | 
Nc1nc2cc(-c3ccc(F)c(OCCC(F)(F)C(O)c4ccc(F)cc4)c3F)ccn2n1 (single isomer, unassigned) [Example 56, 4-(3-(2-amino-[1,2,4]triazolo[1,5-a]pyridin-7-yl)-2,6-difluorophenoxy)-2,2-difluoro-1-(4-fluorophenyl)butan-1-ol] | 8.40 | 
Nc1nc2cc(-c3cccc(OCCC(F)(F)C(O)c4ccc(F)cc4)c3F)ccn2n1 (single isomer, unassigned) [Example 72, 4-(3-(2-amino-[1,2,4]triazolo[1,5-a]pyridin-7-yl)-2-fluorophenoxy)-2,2-difluoro-1-(4-fluorophenyl)butan-1-ol] | 9.00 | 
Cc1ccc(-c2ccn3nc(N)nc3c2)c(F)c1OCCC(F)(F)C(C)(O)c1ccc(F)cc1 (single isomer, unassigned) [Example 63, 5-(3-(2-amino-[1,2,4]triazolo[1,5-a]pyridin-7-yl)-2-fluoro-6-methylphenoxy)-3,3-difluoro-2-(4-fluorophenyl)pentan-2-ol] | 8.10 | 
CC(O)(c1ccc(F)cc1)C(F)(F)CCOc1ccc(F)c(-c2ccn3nc(N)nc3c2)c1F (single isomer, unassigned) [Example 9, 5-(3-(2-amino-[1,2,4]triazolo[1,5-a]pyridin-7-yl)-2,4-difluorophenoxy)-3,3-difluoro-2-(4-fluorophenyl)pentan-2-ol] | 10.00 | 
Nc1nc2cc(-c3ccc(Cl)c(OCCC(F)C(O)c4ccc(F)cc4)c3F)ccn2n1 (single isomer, unassigned) [Example 83, 4-(3-(2-amino-[1,2,4]triazolo[1,5-a]pyridin-7-yl)-6-chloro-2-fluorophenoxy)-2-fluoro-1-(4-fluorophenyl)butan-1-ol] | 7.59 | 
CC(O)(c1ccc(F)cc1)C(F)(F)CCOc1ccc(F)c(-c2ccn3nc(N)nc3c2)n1 (single isomer, unassigned) [Example 77, 5-((6-(2-amino-[1,2,4]triazolo[1,5-a]pyridin-7-yl)-5-fluoropyridin-2-yl)oxy)-3,3-difluoro-2-(4-fluorophenyl)pentan-2-ol] | 6.37 | 
CC(O)(c1ccc(Cl)cc1)C(F)(F)CCOc1c(Cl)ccc(-c2ccn3nc(N)nc3c2)c1F (single isomer, unassigned) [Example 43, 5-(3-(2-amino-[1,2,4]triazolo[1,5-a]pyridin-7-yl)-6-chloro-2-fluorophenoxy)-2-(4-chlorophenyl)-3,3-difluoropentan-2-ol] | 6.48 | 
CC(O)(c1ccccc1)C(F)(F)CCOc1c(Cl)ccc(-c2ccn3nc(N)nc3c2)c1F (single isomer, unassigned) [Example 41, 5-(3-(2-amino-[1,2,4]triazolo[1,5-a]pyridin-7-yl)-6-chloro-2-fluorophenoxy)-3,3-difluoro-2-phenylpentan-2-ol] | 9.40 | 
Nc1nc2cc(-c3ccc(F)c(OCCC(F)(F)C(O)c4ccc(F)cc4)c3)ccn2n1 (single isomer, unassigned) [Example 53, 4-(5-(2-amino-[1,2,4]triazolo[1,5-a]pyridin-7-yl)-2-fluorophenoxy)-2,2-difluoro-1-(4-fluorophenyl)butan-1-ol] | 8.82 | 
Nc1nc2cc(-c3cccc(OCCC(F)C(O)c4ccc(F)cc4)c3F)ccn2n1 (single isomer, unassigned) [Example 86, 4-(3-(2-amino-[1,2,4]triazolo[1,5-a]pyridin-7-yl)-2-fluorophenoxy)-2-fluoro-1-(4-fluorophenyl)butan-1-ol] | 7.77 | 
Nc1nc2cc(-c3cccc(OCCC(F)(F)C(O)c4ccc(F)cc4)c3F)ccn2n1 (single isomer, unassigned) [Example 71, 4-(3-(2-amino-[1,2,4]triazolo[1,5-a]pyridin-7-yl)-2-fluorophenoxy)-2,2-difluoro-1-(4-fluorophenyl)butan-1-ol] |  | 9.22
Nc1nc2cc(-c3cc(F)c(F)c(OCCC(F)C(O)c4ccc(F)cc4)c3)ccn2n1 (single isomer, unassigned) [Example 119, 4-(5-(2-amino-[1,2,4]triazolo[1,5-a]pyridin-7-yl)-2,3-difluorophenoxy)-2-fluoro-1-(4-fluorophenyl)butan-1-ol] | 6.24 | 
CC(C)(CC(F)(F)C(C)(O)c1ccc(F)cc1)Oc1c(F)ccc(-c2ccn3nc(N)nc3c2)c1F (single isomer, unassigned) [Example 130, 5-(3-(2-amino-[1,2,4]triazolo[1,5-a]pyridin-7-yl)-2,6-difluorophenoxy)-3,3-difluoro-2-(4-fluorophenyl)-5-methylhexan-2-ol] | 5.38 | 
